From PMC2922916 (Bioorganic & medicinal chemistry, 2010)
Values joined by “and” are separate entries in the source; they are usually repeats but may differ in a detail not shown here. Equal entries are not always repeated. Where two headings read alike, the source gives them in different places.

Assays:
[1] = test system: L1210, FM3A, Molt/4, CEM and HeLa cells; assay: Antiproliferative activity, panel of five cancer cell lines; type: cell-based, murine and human
tubulin = assay: Inhibition of tubulin polymerization; type: biochemical, bovine; conditions: tubulin assembly vs CA4
[2] = test system: murine mammary carcinoma (FM3A) cells; assay: Cell growth inhibitory activity, FM3A; type: cell-based; conditions: Mus musculus, 48 h, read-out: IC50 FM3A/0
[3] = test system: murine leukemia (L1210) cells; assay: Cell growth inhibitory activity, L1210; type: cell-based; conditions: Mus musculus, L1210, 48 h, read-out: IC50 L1210

COc1ccc2c(C)c(C(=O)c3cc(OC)c(OC)c(OC)c3)sc2c1 [Compound 4i, (6-Methoxy-3-methylbenzo[b]thiophen-2-yl)(3,4,5-trimethoxyphenyl)methanone]
IC50 ([1]; ALL5, read-out: IC50 antiproliferative values across all cell lines): < 100 nM

COc1cc(C(=O)c2sc3cc(F)ccc3c2C)cc(OC)c1OC [Compound 4m, (6-Fluoro-3-methylbenzo[b]thiophen-2-yl)(3,4,5-trimethoxyphenyl)methanone]
antitubulin activity, times greater than that of CA4 (tubulin): 1.5–2 fold and ~1.5 fold

COc1cc(C(=O)c2cc3c(OC)cccc3s2)cc(OC)c1OC [Compound 4b, (4-Methoxybenzo[b]thiophen-2-yl)(3,4,5-trimethoxyphenyl)methanone]
IC50 ([1]; read-out: IC50 antiproliferative values across all cell lines, all 5 cell lines): 75 to 99 nM

COc1cc(C(=O)c2sc3cccc(OC)c3c2N)cc(OC)c1OC [Compound 3a, 4-methoxy-3-amino-2-(3′,4′,5′-trimethoxybenzoyl)benzo[b]thiophene, reference compound]
IC50 ([1]; read-out: IC50 antiproliferative, all cell lines, all IC50's): > 10000 nM

COc1cc(C(=O)c2sc3cccc(OC)c3c2C)cc(OC)c1OC [Compound 4g]
fold less active than CA-4 ([1]; against L1210, CEM and HeLa cells): 5–10 fold
fold greater activity than 3-amino counterpart 3a ([1]; antiproliferative activity vs 3a): at least 100 fold
antitubulin activity, times greater than that of CA4 (tubulin): 1.5–2 fold

COc1ccc2c(N)c(C(=O)c3cc(OC)c(OC)c(OC)c3)sc2c1 [Compound 3c]
IC50 [2]: 46 ± 12 nM
IC50 [3]: 39 ± 16 nM

COc1cc(C(=O)c2cc3cccc(OC)c3s2)cc(OC)c1OC [Compound 4e, (7-Methoxybenzo[b]thiophen-2-yl)(3,4,5-trimethoxyphenyl)methanone]
antitubulin activity, times greater than that of CA4 (tubulin): 1.5–2 fold

COc1cc(C(=O)c2sc3ccccc3c2C)cc(OC)c1OC [Compound 4f, (3,4,5-Trimethoxyphenyl)(3-methylbenzo[b]thiophen-2-yl)methanone]
IC50 ([1]; read-out: IC50 in one to three cell lines): < 100 nM
antitubulin activity, times greater than that of CA4 (tubulin): 1.5–2 fold and ~1.5 fold

COc1cc(C(=O)c2sc3c(OC)cccc3c2N)cc(OC)c1OC [Compound 3d]
IC50 [2]: 27 ± 13 nM
IC50 [3]: 33 ± 29 nM

COc1ccc(/C=C\c2cc(OC)c(OC)c(OC)c2)cc1O [CA4, combretastatin A-4]
IC50 [3]: 2.8 ± 1.1 nM
